Measurements: patent publication US6083920A, “Compositions for modulating intracellular inositol trisphosphate concentration” (priority 1996, dated 2000)

Tests used:
[1] = tested on: InsP3 signalling in primary chick cortical neurons; assay: Phosphoinositide hydrolysis assay (InsP3 signalling) in cultured primary cortical neurons; assay type: cell-based; settings: for inhibitory effect on InsP3 enhancement caused by sphingosine or metabotropic glutamate receptor agonists: cortical neurons
Method: Primary cultures of neurons were prepared from the telencephalon of white Leghorn chick embryos on the eighth day of their development (Rosenberg et al., J.Biol. Chem. 267:10601-10612, 1992). The neurons were seeded in 24-well plastic tissue culture plates that had been coated with L-polylysine. The density of the neurons was 10^5 cells per well, and they were cultured in Dulbecco's modified Eagle's medium/Ham's high glucose F-12 medium (1:1, vol:vol) containing 500 ng/L sodium selenite, 500 μg/L transferrin, and 165 pmole/L EGF. The cultures were maintained at 37° C. under 5% CO2 in air for 4 days, by which time the cells had differentiated into neurite-bearing cortical granulocytic neurons. These cultures of mature embryonic neurons were used for phosphoinositide hydrolysis assays (as described in Example 2).
Receptor-stimulated and basal unstimulated hydrolysis of phosphoinositides was measured by the following procedure. In order to label the cellular phosphoinositides metabolically, the primary cultures of chick cortical neurons (described in Example 1) were incubated overnight with 0.5 ml Dulbecco's modified Eagle's medium containing 1 μCi [^3 H]myo-inositol per well. The cells were then washed twice with 1 ml Dulbecco's phosphate-buffered saline (PBS) and 0.5 ml of PBS containing 4.5 g/L glucose was added. Sphingosine, psychosine, lysosulphatide, or lysosphingomyelin, prepared as the hydrochloride salt dissolved in water, were then added to produce the desired extracellular concentration in specific wells, […] The cells were then washed twice with 1 ml PBS, and pre-incubated for 15 minutes at 37° C. with 0.5 ml PBS containing 10 mM LiCl and the compound to be tested was added. […] The tubes were vortexed thoroughly, then centrifuged at 500×g for 5 minutes to separate the aqueous and chloroform phases. For each sample, a 1.5-ml aliquot of the upper (aqueous) phase was applied to a small column containing BioRad AG1X8 resin (formate form). Free [^3 H]inositol and [^3 H]glycerophosphoinositol were washed through the column with 5 ml of a solution containing 5 mM sodium borate and 60 mM sodium formate. The total phosphorylated [^3 H] inositol fraction was eluted from the column for radiometric scintillation spectrometry analysis with 3 ml 1.0 M ammonium formate/0.1 M formic acid;
In addition, a 0.5 ml aliquot of the lower (chloroform) phase of each sample was analyzed radiometrically by scintillation spectrometry in order to determine the quantity of lipid-bound [^3 H]myo-inositol. Estimation of phosphoinositide hydrolysis by phospholipase C is based upon the quantity of [^3 H]inositol phosphates produced, and is expressed as the percentage of the latter relative to total free and componential [^3 H]inositol (dpm ammonium formate+dpm chloroform fractions).
Cultured primary chick cortical neurons that were prelabeled with [^3 H]myo-inositol were examined for enhanced InsP3 signalling in response to various agonists including glutamate, aspartate, and the metabotropic […] receptor agonists ibotenate and quisqualate.

[2] = Lysosphingolipid loading of isolated neuronal plasma membrane; assay type: in vitro ADME, chick; settings: Plasma Membrane Suspension, 10 μmolar exposure
Text: Total lipids were removed from the neuron samples by repeated extraction with chloroforn:methanol (2:1, vol:vol). […] The recovered lysosphingolipids were stably tagged with NBDZF by the rapid procedure of Nozowa et al. (supra). The fluorescence tagged neuronal lysosphingolipids were separated in parallel with reference standards NBDZF-Sph, NBDZF-Psy, and NBDZF-Lsm on high performance silica gel thin layer chromatography plates with acetonitrile:H2 O (10:0.5, vol:vol). The highly fluorescent, well separated bands were scraped from the plate. The fluorescence tagged lysosphingolipids are eluted from the scraped silica gel with methanol:1 N HCl (1:0.02, vol:vol). The fluorescence tagged lysosphingolipid eluates were quantitated against reference standards by fluorescence measurement in a Perkin-Elmer LS-5 Fluorescence Spectrometer.
Physiologically active phospholipase C is present on the endofacial portion of the plasma membrane. A procedure for examining its activity in an intact membrane is provided. […] One hundred Petri dishes of cultured cortical neurons were incubated overnight with 50 μCi [^3 H]myo-inositol per mL of culture medium. […] The collected neurons were homogenized in 5 mL 0.32 M sucrose and centrifuged at 1000×g for 15 minutes. The supernatant was layered on top of 2 ml 1.2 M sucrose and centrifuged at 300,000×g for 20 minutes. The sedimented pellet was resuspended by sonication for 10 seconds in 50 mM Tris buffer (pH 7.4), containing 0.3 μM CaCl2, 1 mM MgCl2, and 0.01% ascorbic acid.
The suspended plasma membrane preparation was apportioned into 250 μl samples, each providing approximately 100 μg membrane protein. Sphingosine, psychosine, and lysosphingomyelin were added to each plasma membrane sample. […] Samples were analyzed for lysosphingolipid loading (i.e., membrane lysosphingolipid content following exposure to exogenous sphingolipid) by fluorescence tagging. […] Values are reported in pmoles lysosphingolipid/mg plasma membrane protein.

Structure (SMILES)	Ins-P-n, modulator Lsm:Sph ([1]; 20 μM Lysosphingomyelin + 20 μM Sphingosine, then 100 μM agonist 20 min, normalized to control = 1.00)	Ins-P-n, modulator Psy:Sph ([1]; 20 μM Psychosine + 20 μM Sphingosine, then 100 μM agonist 20 min, normalized to control = 1.00)	fold induction at 100 µM ([1]; Gallus gallus, Cortical neurone, 20 min, read-out: Ins-P-n (agonist alone))	inhibitory effect on InsP3 enhancement caused by sphingosine or metabotropic glutamate receptor agonists [1]	membrane lysosphingolipid content, 0 hours of incubation [2]	membrane lysosphingolipid content, 0.5 hours of incubation [2]	membrane lysosphingolipid content, 1.0 hours of incubation [2]	membrane lysosphingolipid content, 2.0 hours of incubation [2]	membrane lysosphingolipid content, 3.0 hours of incubation [2]	basal, unstimulated InsP3 level in cortical neurons [1]
N[C@@H](Cn1oc(=O)[nH]c1=O)C(=O)O [Quisqualate, quisqualate]	2.25 ± 0.15	3.30 ± 0.25	3 ± 0.05							
CCCCCCCCCCCCC/C=C/[C@@H](O)[C@@H](N)COP(=O)([O-])OCC[N+](C)(C)C [lysosphingomyelin, sphingosyl phosphoryicholine]				blocked this enhancement	5 ± 1 pmoles lysosphingolipid/mg pla	65 ± 15 pmoles lysosphingolipid/mg pla	110 ± 15 pmoles lysosphingolipid/mg pla	120 ± 10 pmoles lysosphingolipid/mg pla	145 ± 25 pmoles lysosphingolipid/mg pla	
CCCCCCCCCCCCC/C=C/[C@@H](O)[C@@H](N)CO[C@@H]1O[C@H](CO)[C@H](O)[C@H](O)[C@H]1O [psychosine, lysocerebroside]				blocked this enhancement	45 ± 5 pmoles lysosphingolipid/mg pla	75 ± 20 pmoles lysosphingolipid/mg pla	120 ± 15 pmoles lysosphingolipid/mg pla	180 ± 15 pmoles lysosphingolipid/mg pla	175 ± 20 pmoles lysosphingolipid/mg pla	
CCCCCCCCCCCCC/C=C/[C@@H](O)[C@@H](N)CO [sphingosine]					105 ± 5 pmoles lysosphingolipid/mg pla	113 ± 15 pmoles lysosphingolipid/mg pla	140 ± 15 pmoles lysosphingolipid/mg pla	165 ± 20 pmoles lysosphingolipid/mg pla	175 ± 25 pmoles lysosphingolipid/mg pla	tonically enhanced
